Assay results from ChEMBL document CHEMBL6092180 (Eur J Med Chem, 2024).
Converted amounts (≈) assume the structure as drawn.

Columns and labels:
Format in all cases: functional
Candida albicans [1] = experiment: Antifungal activity against Candida albicans SC5314 assessed as inhibition of fungal growth by CLSI M27-A3 guidelines based method
Candida albicans [2] = experiment: Antifungal activity against Candida albicans GIM 2.194 assessed as inhibition of fungal growth by CLSI M27-A3 guidelines based method
Candida tropicalis = experiment: Antifungal activity against Candida tropicalis GIM 2.183 assessed as inhibition of fungal growth by CLSI M27-A3 guidelines based method
Candida parapsilosis = experiment: Antifungal activity against Candida parapsilosis GIM 2.190 assessed as inhibition of fungal growth by CLSI M27-A3 guidelines based method; conditions: Lodderomyces parapsilosis
Nakaseomyces glabratus = experiment: Antifungal activity against Candida glabrata assessed as inhibition of fungal growth by CLSI M27-A3 guidelines based method
Pichia kudriavzevii = experiment: Antifungal activity against Candida krusei GIM 2.1 assessed as inhibition of fungal growth by CLSI M27-A3 guidelines based method
Cryptococcus neoformans = experiment: Antifungal activity against Cryptococcus neoformans CGMCC 2.3161 assessed as inhibition of fungal growth by CLSI M27-A3 guidelines based method
Aspergillus fumigatus = experiment: Antifungal activity against Aspergillus fumigatus cgmcc 3.7795 assessed as inhibition of fungal growth by CLSI M27-A3 guidelines based method
Candida albicans [3] = experiment: Antifungal activity against fluconazole-resistant Candida albicans CaR assessed as inhibition of fungal growth by CLSI M27-A3 guidelines based method
Candida albicans [4] = experiment: Antifungal activity against fluconazole and iodiconazole resistant Candida albicans clinical isolate 17# assessed as inhibition of fungal growth by CLSI M27-A3 guidelines based method
Candida albicans [5] = experiment: Antifungal activity against fluconazole-resistant Candida albicans clinical isolate 901 assessed as inhibition of fungal growth by CLSI M27-A3 guidelines based method
Candida albicans [6] = experiment: Antifungal activity against fluconazole-resistant Candida albicans clinical isolate 904 assessed as inhibition of fungal growth by CLSI M27-A3 guidelines based method
Candida albicans [7] = experiment: Antifungal activity against fluconazole-resistant Candida albicans clinical isolate 632 assessed as inhibition of fungal growth by CLSI M27-A3 guidelines based method
Candida albicans [8] = experiment: Antifungal activity against fluconazole-resistant Candida albicans clinical isolate 100 assessed as inhibition of fungal growth by CLSI M27-A3 guidelines based method
Candida albicans [9] = experiment: Antifungal activity against fluconazole-resistant Candida albicans clinical isolate 103 assessed as inhibition of fungal growth by CLSI M27-A3 guidelines based method
Candida albicans [10] = experiment: Antifungal activity against fluconazole-resistant Candida albicans clinical isolate 311 assessed as inhibition of fungal growth by CLSI M27-A3 guidelines based method

MIC80 (Candida albicans [1]) [µg/mL]	MIC80 (Candida albicans [2]) [µg/mL]	MIC80 (Candida tropicalis) [µg/mL]	MIC80 (Candida parapsilosis) [µg/mL]	MIC80 (Nakaseomyces glabratus) [µg/mL]	MIC80 (Pichia kudriavzevii) [µg/mL]	MIC80 (Cryptococcus neoformans) [µg/mL]	Compound	MIC80 (Aspergillus fumigatus) [µg/mL]	MIC80 (Candida albicans [3]) [µg/mL]	MIC80 (Candida albicans [4]) [µg/mL]	MIC80 (Candida albicans [5]) [µg/mL]	MIC80 (Candida albicans [6]) [µg/mL]	MIC80 (Candida albicans [7]) [µg/mL]	MIC80 (Candida albicans [8]) [µg/mL]	MIC80 (Candida albicans [9]) [µg/mL]	MIC80 (Candida albicans [10]) [µg/mL]
0.025 (≈ 0.0486 µM)	0.025 (≈ 0.0486 µM)	0.025 (≈ 0.0486 µM)	0.013 (≈ 0.0253 µM)	0.8 (≈ 1.55 µM)	0.4 (≈ 0.777 µM)	0.05 (≈ 0.0972 µM)	CN(Cc1ccc(C#Cc2ccc(C(C)(C)C)cc2)cc1)CC(O)(Cn1cncn1)c1ccc(F)cc1F (stereo unspecified)									
0.013 (≈ 0.0269 µM)	0.006 (≈ 0.0124 µM)	0.013 (≈ 0.0269 µM)	0.006 (≈ 0.0124 µM)	0.1 (≈ 0.207 µM)	0.1 (≈ 0.207 µM)	0.05 (≈ 0.103 µM)	CN(Cc1ccc(C#Cc2ccc(C#N)cc2)cc1)CC(O)(Cn1cncn1)c1ccc(F)cc1F (stereo unspecified)									
0.2 (≈ 0.422 µM)	0.05 (≈ 0.106 µM)	0.2 (≈ 0.422 µM)	0.05 (≈ 0.106 µM)	3.2 (≈ 6.76 µM)	0.8 (≈ 1.69 µM)	0.4 (≈ 0.845 µM)	CN(Cc1ccc(C#Cc2ccc(N)cc2)cc1)CC(O)(Cn1cncn1)c1ccc(F)cc1F (stereo unspecified)									
0.013 (≈ 0.0264 µM)	0.006 (≈ 0.0122 µM)	0.013 (≈ 0.0264 µM)	0.006 (≈ 0.0122 µM)	0.2 (≈ 0.406 µM)	0.01 (≈ 0.0203 µM)	0.013 (≈ 0.0264 µM)	CN(Cc1ccc(C#Cc2cccc(Cl)c2)cc1)CC(O)(Cn1cncn1)c1ccc(F)cc1F (stereo unspecified)									
0.1 (≈ 0.19 µM)	0.025 (≈ 0.0475 µM)	0.05 (≈ 0.095 µM)	0.1 (≈ 0.19 µM)	0.2 (≈ 0.38 µM)	0.2 (≈ 0.38 µM)	0.05 (≈ 0.095 µM)	CN(Cc1ccc(C#Cc2ccc(C(F)(F)F)cc2)cc1)CC(O)(Cn1cncn1)c1ccc(F)cc1F (stereo unspecified)									
0.013 (≈ 0.0242 µM)	0.006 (≈ 0.0112 µM)	0.013 (≈ 0.0242 µM)	0.006 (≈ 0.0112 µM)	0.4 (≈ 0.744 µM)	0.03 (≈ 0.0558 µM)	0.013 (≈ 0.0242 µM)	CN(Cc1ccc(C#Cc2ccccc2Br)cc1)CC(O)(Cn1cncn1)c1ccc(F)cc1F (stereo unspecified)									
0.025 (≈ 0.0543 µM)	0.05 (≈ 0.109 µM)	0.025 (≈ 0.0543 µM)	0.025 (≈ 0.0543 µM)	3.2 (≈ 6.95 µM)	0.8 (≈ 1.74 µM)	0.4 (≈ 0.869 µM)	CN(Cc1ccc(C#Cc2cncnc2)cc1)CC(O)(Cn1cncn1)c1ccc(F)cc1F (stereo unspecified)									
0.025 (≈ 0.0543 µM)	0.05 (≈ 0.109 µM)	0.025 (≈ 0.0543 µM)	0.025 (≈ 0.0543 µM)	3.2 (≈ 6.95 µM)	1.6 (≈ 3.47 µM)	0.8 (≈ 1.74 µM)	CN(Cc1ccc(C#Cc2ncccn2)cc1)CC(O)(Cn1cncn1)c1ccc(F)cc1F (stereo unspecified)									
0.006 (≈ 0.0126 µM)	0.013 (≈ 0.0273 µM)	0.006 (≈ 0.0126 µM)	0.006 (≈ 0.0126 µM)	0.05 (≈ 0.105 µM)	0.01 (≈ 0.021 µM)	0.006 (≈ 0.0126 µM)	CN(Cc1ccc(C#Cc2cccc(F)c2)cc1)CC(O)(Cn1cncn1)c1ccc(F)cc1F (stereo unspecified)									

Compound	MIC80 (Candida albicans [1]) [µg/mL]	MIC80 (Candida albicans [2]) [µg/mL]	MIC80 (Candida tropicalis) [µg/mL]	MIC80 (Candida parapsilosis) [µg/mL]	MIC80 (Nakaseomyces glabratus) [µg/mL]	MIC80 (Pichia kudriavzevii) [µg/mL]	MIC80 (Cryptococcus neoformans) [µg/mL]	MIC80 (Aspergillus fumigatus) [µg/mL]	MIC80 (Candida albicans [3]) [µg/mL]	MIC80 (Candida albicans [4]) [µg/mL]	MIC80 (Candida albicans [5]) [µg/mL]	MIC80 (Candida albicans [6]) [µg/mL]	MIC80 (Candida albicans [7]) [µg/mL]	MIC80 (Candida albicans [8]) [µg/mL]	MIC80 (Candida albicans [9]) [µg/mL]	MIC80 (Candida albicans [10]) [µg/mL]
C[C@@H](N(C)Cc1ccc(C#Cc2ccc(Br)cc2)cc1)[C@](O)(Cn1cncn1)c1ccc(F)cc1F	0.025 (≈ 0.0453 µM)	0.025 (≈ 0.0453 µM)	0.006 (≈ 0.0109 µM)	0.006 (≈ 0.0109 µM)	0.05 (≈ 0.0907 µM)	0.03 (≈ 0.0544 µM)	0.025 (≈ 0.0453 µM)	0.1 (≈ 0.181 µM)	0.25 (≈ 0.453 µM)	0.5 (≈ 0.907 µM)	8 (≈ 14.5 µM)	16 (≈ 29 µM)	8 (≈ 14.5 µM)	8 (≈ 14.5 µM)	8 (≈ 14.5 µM)	> 64
C[C@@H](N(C)Cc1ccc(C#Cc2ccc(C#N)cc2)cc1)[C@](O)(Cn1cncn1)c1ccc(F)cc1F	0.006 (≈ 0.0121 µM)	0.006 (≈ 0.0121 µM)	0.006 (≈ 0.0121 µM)	0.006 (≈ 0.0121 µM)	0.01 (≈ 0.0201 µM)	0.01 (≈ 0.0201 µM)	0.006 (≈ 0.0121 µM)	0.05 (≈ 0.1 µM)	0.5 (≈ 1 µM)	0.25 (≈ 0.502 µM)	8 (≈ 16.1 µM)	32 (≈ 64.3 µM)	8 (≈ 16.1 µM)	16 (≈ 32.2 µM)	8 (≈ 16.1 µM)	32 (≈ 64.3 µM)
C[C@@H](N(C)Cc1ccc(C#Cc2cc(F)c(Cl)cc2F)cc1)[C@](O)(Cn1cncn1)c1ccc(F)cc1F	0.013 (≈ 0.0239 µM)	0.05 (≈ 0.0921 µM)	0.006 (≈ 0.0111 µM)	0.006 (≈ 0.0111 µM)	0.05 (≈ 0.0921 µM)	0.05 (≈ 0.0921 µM)	0.013 (≈ 0.0239 µM)	0.2 (≈ 0.368 µM)	0.5 (≈ 0.921 µM)	0.5 (≈ 0.921 µM)	4 (≈ 7.37 µM)	32 (≈ 58.9 µM)	4 (≈ 7.37 µM)	4 (≈ 7.37 µM)	8 (≈ 14.7 µM)	32 (≈ 58.9 µM)
